Source: US9593149B2, “Amylin and calcitonin receptor agonist” (Novo Nordisk A/S, priority 2014, dated 2017)
pIC50: −log10 of the molar value. Numbered stars: 1 amine (or outer) side, 2 acyl side, 3 side chain; on linkers, the order of the positions; unused ones are H or OH. Side chains are listed from the residue outwards. Peptide text beside a SMILES is read from it. * marks the point of attachment. C20 diacid = O=C(O)CCCCCCCCCCCCCCCCCCC(=O)*; C18 diacid = O=C(O)CCCCCCCCCCCCCCCCC(=O)*; γGlu = O=C(O)[C@H](CCC(=O)[*:2])N[*:1]

Experiments:
rat calcitonin receptor = biological target: T1, rat calcitonin receptor (Rattus norvegicus, UniProt P32214); assay: Assay (VIII) binding to the rat calcitonin receptor; conditions: membranes; read-out: rCT-R binding IC50
T1 construct: expressed in transfected cells; host or cells: BHK tk'ts 13 (transient, FuGENE 6)
T1 sequence (P32214 25-479 isoform P32214-2 limits assumed): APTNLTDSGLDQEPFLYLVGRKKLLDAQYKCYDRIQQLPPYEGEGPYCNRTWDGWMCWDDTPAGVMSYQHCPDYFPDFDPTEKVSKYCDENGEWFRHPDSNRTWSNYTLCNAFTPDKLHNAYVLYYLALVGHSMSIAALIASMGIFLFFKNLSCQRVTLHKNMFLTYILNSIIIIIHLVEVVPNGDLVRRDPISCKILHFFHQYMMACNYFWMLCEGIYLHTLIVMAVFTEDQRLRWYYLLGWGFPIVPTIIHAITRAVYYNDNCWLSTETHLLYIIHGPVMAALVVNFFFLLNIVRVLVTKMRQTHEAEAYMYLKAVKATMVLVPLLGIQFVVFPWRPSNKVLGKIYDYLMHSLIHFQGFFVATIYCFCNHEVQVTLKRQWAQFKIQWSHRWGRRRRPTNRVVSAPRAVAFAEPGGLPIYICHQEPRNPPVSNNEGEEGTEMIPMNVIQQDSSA
Procedure: The morning after, the plates were washed three times in HBSS (4° C.), and lyzed in Lysis buffer (0.1 M NaOH), 1% SDS. Scintillation cocktail (MicroScint40®) was added and the plates were shaken at 500 rpm for a short period. The plate was incubated at room temperature in the dark for 1 hour and Read on a TopCounter™ (Packard). The IC50 was calculated using (one site binding competition analysis) GraphPad Prism5 as a measure of receptor affinity. Assay (VIII)—Determination of Binding to the Rat Calcitonin Receptor
The assay was performed as described above (Assay (VII)—Determination of binding to the human calcitonin receptor) with the exception that we used membranes prepared from BHK tk'ts 13 cells that were transiently transfected with the rat calcitonin receptor. The BHK tk'ts 13 cells were transiently transfected with rat calcitonin receptor using FuGENE® 6 (Roche), according to the manufacturer's recommendations. Cells were grown in DMEM with 10% FBS and 1% Pen/Strep.

[1] = Assay (IV) determination of solubility; format: physicochemical
Procedure: Assay (IV)—Determination of Solubility
The mimylin peptide was dissolved in water at ˜500 nmol/ml and mixed 1:1 with a series of buffers (100 mM glycylglycine pH 3.0, 100 mM glycylglycine pH 4.0, 100 mM glycylglycine pH 5.0, 100 mM bistrispropane pH 6.0, 100 mM bistrispropane pH 6.5, 100 mM bistrispropane pH 7.0, 100 mM bistrispropane pH 7.5, 100 mM bistrispropane pH 8.0).

For `CC(C)C[C@H](NC(=O)[C@H](C)NC(=O)[C@H](C)NC(=O)[C@@H](NC(=O)[C@H](CO)NC(=O)[C@H](CC(C)C)NC(=O)[C@H](CCC(=O)O)NC(=O)[C@H](CO)NC(=O)[C@H](C)N)[C@@H](C)O)C(=O)NCC(=O)N[C@@H](CCCNC(=N)N)C(=O)N[C@@H](CC(C)C)C(=O)N[C@@H](CO)C(=O)N[C@@H](C)C(=O)N[C@@H](CCC(=O)O)C(=O)N[C@@H](CC(C)C)C(=O)N[C@@H](Cc1cnc[nH]1)C(=O)N[C@@H](CCCCNC(=O)CC[C@H](NC(=O)CCCCCCCCCCCCCCCCCCC(=O)O)C(=O)O)C(=O)N[C@@H](CC(C)C)C(=O)N[C@@H](C)C(=O)N[C@H](C(=O)N[C@@H](CC(C)C)C(=O)N1CCC[C@H]1C(=O)N[C@@H](CCCNC(=N)N)C(=O)N[C@H](C(=O)N[C@@H](CCC(=O)O)C(=O)N[C@H](C(=O)NCC(=O)N[C@@H](CO)C(=O)NCC(=O)N[C@@H](CO)C(=O)N1CCC[C@H]1C(N)=O)[C@@H](C)O)[C@@H](C)O)[C@@H](C)O` [compound 54, [des1, 19K(C20 diacid-gGlu), 30S, 31G]mimylin] (H-ASELSTAALGRLSAELHK([γGlu-C20 diacid])LATLPRTETGSGSP-NH2), the pIC50 (rat calcitonin receptor) was 10.36, the Solubility ([1]; pH 3.0) was “≧200 μM” and the Solubility ([1]; pH 4.0) was “≧200 μM”. For the same compound, the Solubility ([1]; pH 5.0) was “≧200 μM”, the Solubility ([1]; pH 6.0) was “≧200 μM” and the Solubility ([1]; pH 6.5) was “≧200 μM”. The Solubility ([1]; pH 7.0) was “≧200 μM”, the Solubility ([1]; pH 7.5) was “≧200 μM” and the Solubility ([1]; pH 8.0) was “≧200 μM”.

For `CC(C)C[C@H](NC(=O)[C@H](C)NC(=O)[C@H](C)NC(=O)[C@@H](NC(=O)[C@H](CO)NC(=O)[C@H](CC(C)C)NC(=O)[C@H](CCC(=O)O)NC(=O)[C@H](CO)NC(=O)[C@H](C)NC(=O)CCCCCCCCCCCCCCCCC(=O)O)[C@@H](C)O)C(=O)NCC(=O)N[C@@H](CCCNC(=N)N)C(=O)N[C@@H](CC(C)C)C(=O)N[C@@H](CO)C(=O)N[C@@H](C)C(=O)N[C@@H](CCC(=O)O)C(=O)N[C@@H](CC(C)C)C(=O)N[C@@H](Cc1cnc[nH]1)C(=O)N[C@@H](CCC(=O)O)C(=O)N[C@@H](CC(C)C)C(=O)N[C@@H](C)C(=O)N[C@H](C(=O)N[C@@H](CC(C)C)C(=O)N1CCC[C@H]1C(=O)N[C@@H](CCCNC(=N)N)C(=O)N[C@H](C(=O)N[C@@H](CCC(=O)O)C(=O)N[C@H](C(=O)NCC(=O)N[C@@H](CO)C(=O)NCC(=O)N[C@@H](CO)C(=O)N1CCC[C@H]1C(N)=O)[C@@H](C)O)[C@@H](C)O)[C@@H](C)O` [compound 48, [N-terminal(C18 diacid), des1, 30S, 31G]mimylin] ({C18 diacid}-ASELSTAALGRLSAELHELATLPRTETGSGSP-NH2), the pIC50 (rat calcitonin receptor) was 10.89, the Solubility ([1]; pH 3.0) was “≧200 μM” and the Solubility ([1]; pH 4.0) was “≧200 μM”. For the same compound, the Solubility ([1]; pH 5.0) was “≧200 μM”, the Solubility ([1]; pH 6.0) was “≧200 μM” and the Solubility ([1]; pH 6.5) was “≧200 μM”. For the same compound, the Solubility ([1]; pH 7.0) was “≧200 μM”, the Solubility ([1]; pH 7.5) was “≧200 μM” and the Solubility ([1]; pH 8.0) was “≧200 μM”.
